The values below come from paper PMC9460781, “In Vitro and In Silico Study of the α-Glucosidase and Lipase Inhibitory Activities of Chemical Constituents from Piper cumanense (Piperaceae) and Synthetic Analogs” (Plants, 2022).

The term IC50 denotes the concentration that inhibits the measured activity by half. A word on the Ki: it is a measure of affinity in units of concentration, obtained from inhibition or displacement. A low value points to tighter binding. For orientation: melting point means the temperature of the solid-liquid transition.

Values after ≈ are worked out from the molar mass of the structure shown.

The target of data set [1] is T1, α-glucosidase (AG) type I from Saccharomyces cerevisiae (Saccharomyces cerevisiae, UniProt P53341).
T1 construct: purchased Sigma-Aldrich L-SLBX6245 (printed); host or cells: Saccharomyces cerevisiae
Nature of the data set: Kinetic study on AG (Ki, type of inhibition). It is filed as biochemical. To be noted: for α-Glucosidase Inhibition Type: Lineweaver–Burk, abbreviated M, NC in Table S1; for Ki: nonlinear regression of enzyme inhibition kinetics. From the text:
(§1) The enzymes used in this study were pancreatic lipase type II (PL) from porcine pancreas (100–400 units/mg protein, L-SLBD2433V, EC. 3.1.1.3, Sigma-Aldrich, San Luis, MO, USA) and α-glucosidase (AG) type I from Saccharomyces cerevisiae (lyophilized powder, ≥10 units/mg protein, L-SLBX6245, EC 3.2.1.20, Sigma-Aldrich, San Luis, MO, USA). 4-nitrophenyl dodecanoate (Sigma-Aldrich, San Luis, MO, USA) was used as the substrate for PL while 4-nitrophenyl-α-D-glucopyranoside (Sigma-Aldrich, San Luis, MO, USA) for AG. Absorbance readings were performed in a Multiskan GO microplate reader (Thermo Scientific®, Waltham, MA, USA).
(§2) Kinetic studies to determine the type of inhibition were performed with PL and AG using a methodology the same as that described in the inhibitory activity assays. […] Five substrate concentrations were used for each of the enzymes in the range between 12.5 to 200 μM p-nitrophenyl dodecanoate for PL and 25 to 800 μM for p-nitrophenyl-α-D-glucopyranoside in AG. Kinetic experiments were performed in triplicate in two independent experiments. Inhibition constants (Ki) were calculated from (substrate) vs reaction rate curves using nonlinear regression of the enzyme inhibition kinetic function. Additionally, the inhibition mechanism was graphically determined by applying the double reciprocal Lineweaver–Burk regression function.

Data set [2] addresses T2, pancreatic lipase type II (PL) from porcine pancreas (Sus scrofa, UniProt P00591).
T2 construct: purchased Sigma-Aldrich L-SLBD2433V (printed); host or cells: porcine pancreas
T2 sequence (P00591 1-450): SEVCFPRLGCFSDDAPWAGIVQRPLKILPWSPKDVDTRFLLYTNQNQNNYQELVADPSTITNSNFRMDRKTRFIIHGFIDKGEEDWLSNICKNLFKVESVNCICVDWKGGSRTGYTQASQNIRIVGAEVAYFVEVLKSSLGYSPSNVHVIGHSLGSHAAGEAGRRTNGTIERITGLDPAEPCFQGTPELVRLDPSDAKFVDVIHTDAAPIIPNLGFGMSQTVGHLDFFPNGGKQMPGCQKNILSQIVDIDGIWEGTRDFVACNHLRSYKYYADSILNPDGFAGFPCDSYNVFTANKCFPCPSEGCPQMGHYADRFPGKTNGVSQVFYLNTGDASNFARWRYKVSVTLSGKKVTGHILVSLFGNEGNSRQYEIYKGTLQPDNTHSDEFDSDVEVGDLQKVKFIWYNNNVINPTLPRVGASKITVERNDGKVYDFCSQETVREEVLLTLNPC
Nature of the data set: PL inhibition assay. To be noted: p-nitrophenyl dodecanoate substrate, pH 8.4, 37 °C; NA: not active. The format is biochemical.
Excerpt: as §1
Determination of enzymatic inhibition of the identified compounds against the PL enzyme was carried out following the methodology described in the literature with some modifications. The concentrations were evaluated for compounds from 300 to 6.25 µM. […] In 96-well boxes, 30 μL of extract or compound stock solution, 30 μL of PL solution (200 U/mL), and 160 μL of Tris-HCl buffer (0.1 M, pH: 8.4) were mixed. The mixture obtained was pre-incubated for 30 min at 37 °C. Subsequently, 30 μL of p-nitrophenyl dodecanoate (100 μM) were added to complete a final volume of 250 μL and incubated for 40 min at 37 °C. After the incubation time, the absorbance was measured at 405 nm. All assays were performed in triplicate in two independent assays. IC50 values were estimated by nonlinear regression analysis. Statistically significant differences in biological effects of inhibitors (compounds) were analyzed and compared using the ANOVA test, supplemented by Tukey HSD post hoc analysis. All reported data corresponded to the average of three repetitions ± SD, and the statistical significance considered was p < 0.05.

Data set [3] addresses T2, pancreatic lipase type II (PL) from porcine pancreas. Nature of the data set: Kinetic study on PL (Ki, type of inhibition). The format is biochemical. To be noted: for Ki: nonlinear regression of enzyme inhibition kinetics; for Pancreatic Lipase Inhibition Type: Lineweaver–Burk, abbreviated UC, C, NC, M in Table S1.
Excerpt: as §1, §2

The next data set relates to chemokine receptor CCR5. Details: method as in PMID 14561515. Conditions: cited from earlier work.
In data set [4] the target is T1, α-glucosidase (AG) type I from Saccharomyces cerevisiae. Nature of the data set: biochemical. To be noted: α-Glucosidase IC50, p-nitrophenyl-α-D-glucopyranoside substrate, pH 7.2, 37 °C; NA: not active.
Excerpt: as §1
Determination of enzyme inhibition of the compounds identified against the AG enzyme was carried out following the methodology described in the literature with some modifications. The concentrations were evaluated for compounds from 300 to 6.25 µM. […] In 96-well boxes, 10 μL of stock solution of each extract or compound, 20 μL of GA solution (0.5 U/mL), and 200 μL of phosphate buffer (0.1 M, pH: 7.2) were mixed. The mixture obtained was pre-incubated for 30 min at 37 °C. […] After the reaction time, the absorbance at 405 nm was measured. […] Statistically significant differences in the biological effects of inhibitors (compounds) were analyzed and compared using ANOVA, supplemented by Tukey HSD post hoc analysis. […]

The next data set relates to AG. Conditions: cited from earlier work.

T1 sequence (P53341 whole entry): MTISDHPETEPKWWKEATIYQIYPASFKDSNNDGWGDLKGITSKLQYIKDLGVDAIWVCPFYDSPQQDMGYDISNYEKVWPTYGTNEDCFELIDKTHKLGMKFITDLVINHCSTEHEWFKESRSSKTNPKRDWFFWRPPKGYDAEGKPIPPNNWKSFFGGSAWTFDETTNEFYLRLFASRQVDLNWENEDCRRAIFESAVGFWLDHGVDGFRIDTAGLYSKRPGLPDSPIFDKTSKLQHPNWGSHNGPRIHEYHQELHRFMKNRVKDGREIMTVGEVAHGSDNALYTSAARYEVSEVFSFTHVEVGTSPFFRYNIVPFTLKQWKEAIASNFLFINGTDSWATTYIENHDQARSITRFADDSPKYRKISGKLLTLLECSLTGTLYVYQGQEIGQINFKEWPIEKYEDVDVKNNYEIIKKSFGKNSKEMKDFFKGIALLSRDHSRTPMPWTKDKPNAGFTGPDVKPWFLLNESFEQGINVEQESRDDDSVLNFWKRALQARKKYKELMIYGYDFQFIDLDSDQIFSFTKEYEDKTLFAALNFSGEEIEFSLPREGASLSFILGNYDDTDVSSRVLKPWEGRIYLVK

For the compound `C[C@H]1O[C@H](O[C@H]2[C@H](O)[C@@H](O)[C@@H](O[C@H]3[C@H](O)[C@@H](O)C(O)O[C@@H]3CO)O[C@@H]2CO)[C@H](O)[C@@H](O)[C@@H]1N[C@H]1C=C(CO)[C@@H](O)[C@H](O)[C@H]1O` (stereo partly drawn) [Acarbose, reference compound], in data set [1], the “α-Glucosidase Inhibition Type” value is listed as “Competitive”.
Regarding `CC(C)=CCC/C(C)=C/C(=O)c1cc(C(=O)O)cc(CC=C(C)C)c1O` [Compound 1, (2′E) cumenic acid], it took 33.8 ± 5.95 µM to reach half-maximal inhibition in data set [2] (IC50). Further, the Ki in data set [3] is 7.88 µM.
In turn, `CC(C)=CCC/C(C)=C\C(=O)c1cc(C(=O)O)cc(CC=C(C)C)c1O` [Compound 2, (2′Z) cumenic acid] registered a melting point of 132 to 134 °C. This compound yielded an IC50 in data set [2] of 36.2 ± 5.05 µM. In addition, in data set [3], the inhibitory constant (Ki) was found to be 8.46 µM.
In data set [2], `CC(C)=CCCC1(C)C=Cc2cc(C(=O)O)cc(CC=C(C)C)c2O1` (stereo not drawn) [Compound 3, gaudichaudianic acid] showed a concentration for half-maximal inhibition (IC50) of 36.3 ± 6.5 µM. Besides, in data set [3], the “Pancreatic Lipase Inhibition Type” value is listed as “Competitive” and the affinity corresponds to a Ki of 18 µM.
In turn, `COc1ccc(C(=O)O)cc1CC=C(C)C` [Compound 4, 4-methoxy-3-(3′-methyl-2’-butenyl)benzoic acid] came in with a melting point of 112 to 113 °C. Further, the “Pancreatic Lipase IC50” value in data set [2] is on record as “did not show any activity”. In addition, in the data set with chemokine receptor CCR5, the “ability to bind to the chemokine receptor CCR5” value was “confirmed”.
For `CC(C)=CC(=O)c1ccccc1O` [Compound 5, 1-(2-Hydroxy-phenyl)-3-methyl-but-2-en-1-one], half-maximal inhibition in data set [2] (IC50) was put at 48.3 ± 2.57 µM. In data set [3], the “Pancreatic Lipase Inhibition Type” value is on record as “Noncompetitive” and the affinity, expressed as Ki, was 48.3 µM.
For the compound `CCCCC1(O)CC(C)(C)Oc2ccccc21` (stereo not drawn) [Compound 6, 4-Butyl-2,2-dimethyl-chroman-4-ol], the IC50 in data set [4] was found to be 154 ± 4.65 µM. Further, in data set [1], the “α-Glucosidase Inhibition Type” value is on record as “mixed-type” and the Ki stood at 51.3 µM. Besides, the concentration for half-maximal inhibition (IC50) in data set [2] worked out at 28.3 ± 2.9 µM. Besides, in data set [3], the “Pancreatic Lipase Inhibition Type” value is “Noncompetitive” and the inhibition constant (Ki) amounted to 28.3 µM.
As for `CC(C)=CCCC(C)=CC(O)c1ccc2c(c1)C=CC(C)(C)O2` (stereo not drawn) [Compound 7, 1-(2,2-Dimethyl-2H-chromen-6-yl)-3,7-dimethyl-octa-2,6-dien-1-ol], the IC50 in data set [4] amounted to 134 ± 5.6 µM. In data set [1], the “α-Glucosidase Inhibition Type” value was “Noncompetitive” and the affinity corresponds to a Ki of 136 µM. The half-maximal inhibitory concentration (IC50) in data set [2] was found to be 33.1 ± 5.28 µM. Moreover, in data set [3], the “Pancreatic Lipase Inhibition Type” value is on record as “Competitive” and the inhibition constant (Ki) is 25.4 µM.
Take `COC(=O)c1cc(CC=C(C)C)c(O)c(C(=O)C=C(C)CCC=C(C)C)c1` [Compound 8, 3-(3,7-Dimethyl-octa-2,6-dienoyl)-4-hydroxy-5-(3-methyl-but-2-enyl)-benzoic acid methyl ester]: the IC50 in data set [2] amounted to 55.8 ± 2.98 µM. Further, in data set [3], the “Pancreatic Lipase Inhibition Type” value is “Mixed” and the affinity corresponds to a Ki of 42.8 µM.
On to `CCCCCCCCCCC[C@@H](C[C@@H]1OC(=O)[C@H]1CCCCCC)OC(=O)[C@H](CC(C)C)NC=O` [Orlistat, reference compound], for which the “Pancreatic Lipase Inhibition Type” value in data set [3] is on record as “Irreversible”.
Consider `CO[C@H]1C=CC(=O)N1C(=O)CCc1ccccc1` [chaplupyrrolidone B], for which the IC50 with AG is 430 µM.
Consider `O=C(/C=C/C=C/c1ccc2c(c1)OCO2)N1CCCCC1` [piperine], for which, in the data set on AG, the “IC50 on AG” value was 147 µg/mL (≈ 515 µM).
